According to US6914045B2, “Glycopeptide antibiotics” (Wyeth Holdings Corporation, priority 2001, dated 2005):
In brackets after ≈: the same amount, converted by molar mass.

Assays:
Test in all cases: in vitro antibacterial evaluation, MIC by broth dilution
Assay type in all cases: cell-based
Enterococcus sp. = details: broth dilution, 18 hours at 35° C.
Description: (§1) Methods for in vitro Antibacterial Evaluation (Table 1)
(§2) The minimum inhibitory concentration (MIC), the lowest concentration of the antibiotic which inhibits growth of the test organism, is determined by the broth dilution method using Muller-Hinton II […] (Baltimore Biological Laboratories) following the recommendations of the National Committee for Clinical Laboratory Standards [Methods for dilution antimicrobial susceptibility tests for bacteria that grow aerobically, approved standard M7-A2, National Committee for Clinical Laboratory Standards, Villanova, Pa.].
(§3) An inoculum level of 5×10^5 CFU/mL, and a range of antibiotic concentrations (64-0.06 μg/mL) is used. […] The test organisms include a spectrum of Gram-positive bacteria comprised of Staphylococcus sp., Streptococcus sp. and Enterococcus sp. These organisms include recent clinical isolates that are resistant to methicillin, penicillin and/or vancomycin.

Staphylococcus sp. = details: broth dilution, 18 hours at 35° C.; for MIC Staphylococcus aureus (ATCC 29213): strain ATCC 29213; for MIC Staphylococcus aureus (GC 1131): strain GC 1131; for MIC Staphylococcus aureus (GC 3051): strain GC 3051; for MIC Staphylococcus aureus (GC 3053): strain GC 3053; for MIC Staphylococcus aureus (GC 4541): strain GC 4541; for MIC Staphylococcus aureus (GC 4542): strain GC 4542; for MIC Staphylococcus aureus-SMITH (GC 4543): strain GC 4543; for MIC Staphylococcus aureus (GC 4544): strain GC 4544; for MIC Staphylococcus aureus (GC 4545): strain GC 4545; for MIC Staphylococcus haemolyticus (GC 4546): strain GC 4546; for MIC Coagulase Negative Staphylococcus (GC 4547): strain GC 4547; for MIC Coagulase Negative Staphylococcus (GC 4548): strain GC 4548; for MIC Coagulase Negative Staphylococcus (GC 4549): strain GC 4549; for MIC Coagulase Negative Staphylococcus (GC 4551): strain GC 4551
Description: as §1, §2, §3

Streptococcus sp. = details: broth dilution, 18 hours at 35° C.
Description: as §1, §2, §3

Escherichia coli = details: 18 hours at 35° C.
[1] = inoculum 5×10^5 CFU/mL, strain ATCC 29212
[2] = inoculum 5×10^5 CFU/mL, strain GC 2242
[3] = inoculum 5×10^5 CFU/mL, strain GC 2243
[4] = inoculum 5×10^5 CFU/mL, strain GC 2691
[5] = inoculum 5×10^5 CFU/mL, strain GC 3059
[6] = inoculum 5×10^5 CFU/mL, strain GC 4552
[7] = inoculum 5×10^5 CFU/mL, strain GC 4553
[8] = inoculum 5×10^5 CFU/mL, strain GC 4554
[9] = inoculum 5×10^5 CFU/mL, strain GC 4556
[10] = inoculum 5×10^5 CFU/mL, strain GC 4557
[11] = inoculum 5×10^5 CFU/mL, strain GC 4558
[12] = inoculum 5×10^5 CFU/mL, strain GC 6189
[13] = inoculum 5×10^5 CFU/mL, strain ATCC 6301
[14] = inoculum 5×10^5 CFU/mL, strain GC 1894
[15] = inoculum 5×10^5 CFU/mL, strain GC 4563
[16] = inoculum 5×10^5 CFU/mL, strain GC 4564
[17] = inoculum 5×10^5 CFU/mL, strain GC 4565

## CC(c1ccccc1)C1NC(=O)CNC(=O)C(CO)NC(=O)C(C(O)C2CNC(=N)N2C2OC(CO)C(O)C(O)C2O)NC(=O)C(C(O)C2CNC(=N)N2)NC(=O)C(Cc2ccc(OC3OC(CO)C(OC4OC5COC6(CC7CCC6(C)C7(C)C)OC5C(O)C4O)C(O)C3O)cc2)NC1=O (centres unmarked) [Example 214]
Enterococcus sp.
  MIC Enterococcus avium (GC 4558): 2 µg/mL (≈ 1.4 µM)
  MIC Enterococcus faecalis (ATCC 29212): 2 µg/mL (≈ 1.4 µM)
  MIC Enterococcus faecalis (GC 2242): 2 µg/mL (≈ 1.4 µM)
  MIC Enterococcus faecalis (GC 2691): 2 µg/mL (≈ 1.4 µM)
  MIC Enterococcus faecalis (GC 3059): 2 µg/mL (≈ 1.4 µM)
  MIC Enterococcus faecalis (GC 4552): 2 µg/mL (≈ 1.4 µM)
  MIC Enterococcus faecalis (GC 4553): 2 µg/mL (≈ 1.4 µM)
  MIC Enterococcus faecalis (GC 4554): 2 µg/mL (≈ 1.4 µM)
  MIC Enterococcus faecalis (GC 6189): 2 µg/mL (≈ 1.4 µM)
  MIC Enterococcus faecium (GC 2243): 1 µg/mL (≈ 0.7 µM)
  MIC Enterococcus faecium (GC 4556): 2 µg/mL (≈ 1.4 µM)
  MIC Enterococcus faecium (GC 4557): 2 µg/mL (≈ 1.4 µM)
Enterococcus sp.; [1]
  MIC Enterococcus faecalis (ATCC 29212): 2 µg/mL (≈ 1.4 µM)
Enterococcus sp.; [2]
  MIC Enterococcus faecalis (GC 2242): 2 µg/mL (≈ 1.4 µM)
Enterococcus sp.; [3]
  MIC Enterococcus faecium (GC 2243): 1 µg/mL (≈ 0.7 µM)
Enterococcus sp.; [4]
  MIC Enterococcus faecalis (GC 2691): 2 µg/mL (≈ 1.4 µM)
Enterococcus sp.; [5]
  MIC Enterococcus faecalis (GC 3059): 2 µg/mL (≈ 1.4 µM)
Enterococcus sp.; [6]
  MIC Enterococcus faecalis (GC 4552): 2 µg/mL (≈ 1.4 µM)
Enterococcus sp.; [7]
  MIC Enterococcus faecalis (GC 4553): 2 µg/mL (≈ 1.4 µM)
Enterococcus sp.; [8]
  MIC Enterococcus faecalis (GC 4554): 2 µg/mL (≈ 1.4 µM)
Enterococcus sp.; [9]
  MIC Enterococcus faecium (GC 4556): 2 µg/mL (≈ 1.4 µM)
Enterococcus sp.; [10]
  MIC Enterococcus faecium (GC 4557): 2 µg/mL (≈ 1.4 µM)
Enterococcus sp.; [11]
  MIC Enterococcus avium (GC 4558): 2 µg/mL (≈ 1.4 µM)
Enterococcus sp.; [12]
  MIC Enterococcus faecalis (GC 6189): 2 µg/mL (≈ 1.4 µM)
Staphylococcus sp.
  MIC Staphylococcus aureus (ATCC 29213): 2 µg/mL (≈ 1.4 µM)
  MIC Staphylococcus aureus (GC 1131): 1 µg/mL (≈ 0.7 µM)
  MIC Staphylococcus aureus (GC 3051): 32 µg/mL (≈ 22.4 µM)
  MIC Staphylococcus aureus (GC 3053): 2 µg/mL (≈ 1.4 µM)
  MIC Staphylococcus aureus (GC 4541): 2 µg/mL (≈ 1.4 µM)
  MIC Staphylococcus aureus (GC 4542): 1 µg/mL (≈ 0.7 µM)
  MIC Staphylococcus aureus-SMITH (GC 4543): 0.5 µg/mL (≈ 0.35 µM)
  MIC Staphylococcus aureus (GC 4544): 1 µg/mL (≈ 0.7 µM)
  MIC Staphylococcus aureus (GC 4545): 2 µg/mL (≈ 1.4 µM)
  MIC Staphylococcus haemolyticus (GC 4546): 1 µg/mL (≈ 0.7 µM)
  MIC Coagulase Negative Staphylococcus (GC 4547): 1 µg/mL (≈ 0.7 µM)
  MIC Coagulase Negative Staphylococcus (GC 4548): 1 µg/mL (≈ 0.7 µM)
  MIC Coagulase Negative Staphylococcus (GC 4549): 0.5 µg/mL (≈ 0.35 µM)
  MIC Coagulase Negative Staphylococcus (GC 4551): 1 µg/mL (≈ 0.7 µM)
Streptococcus sp.
  MIC Streptococcus agalactiae (GC 4564): <0.12 µg/mL
  MIC Streptococcus pneumoniae (ATCC 6301): <0.12 µg/mL
  MIC Streptococcus pneumoniae (GC 1894): <0.12 µg/mL
  MIC Streptococcus pneumoniae (GC 4565): <0.12 µg/mL
  MIC Streptococcus pyogenes (GC 4563): <0.12 µg/mL
Streptococcus sp.; [13]
  MIC Streptococcus pneumoniae (ATCC 6301): <0.12 µg/mL
Streptococcus sp.; [14]
  MIC Streptococcus pneumoniae (GC 1894): <0.12 µg/mL
Streptococcus sp.; [15]
  MIC Streptococcus pyogenes (GC 4563): <0.12 µg/mL
Streptococcus sp.; [16]
  MIC Streptococcus agalactiae (GC 4564): <0.12 µg/mL
Streptococcus sp.; [17]
  MIC Streptococcus pneumoniae (GC 4565): <0.12 µg/mL
Escherichia coli
  MIC Escherichia coli (ATCC 25922): 64 µg/mL (≈ 44.8 µM)
  MIC Escherichia coli (GC 4559): 64 µg/mL (≈ 44.8 µM)
  MIC Escherichia coli (GC 4560): 2 µg/mL (≈ 1.4 µM)

## CC(c1ccccc1)C1NC(=O)CNC(=O)C(CO)NC(=O)C(C(O)C2CNC(=N)N2C2OC(CO)C(O)C(O)C2O)NC(=O)C(C(O)C2CNC(=N)N2)NC(=O)C(Cc2ccc(OC3OC(CO)C(OC4OC5COC(c6ccccc6)OC5C(O)C4O)C(O)C3O)c(I)c2)NC1=O (centres unmarked) [Example 196]
Enterococcus sp.
  MIC Enterococcus avium (GC 4558): 32 µg/mL (≈ 21.2 µM)
  MIC Enterococcus faecalis (ATCC 29212): >64 µg/mL
  MIC Enterococcus faecalis (GC 2242): >64 µg/mL
  MIC Enterococcus faecalis (GC 2691): >64 µg/mL
  MIC Enterococcus faecalis (GC 3059): >64 µg/mL
  MIC Enterococcus faecalis (GC 4552): >64 µg/mL
  MIC Enterococcus faecalis (GC 4553): 64 µg/mL (≈ 42.4 µM)
  MIC Enterococcus faecalis (GC 4554): >64 µg/mL
  MIC Enterococcus faecalis (GC 6189): >64 µg/mL
  MIC Enterococcus faecium (GC 2243): 64 µg/mL (≈ 42.4 µM)
  MIC Enterococcus faecium (GC 4556): >64 µg/mL
  MIC Enterococcus faecium (GC 4557): 8 µg/mL (≈ 5.3 µM)
Enterococcus sp.; [1]
  MIC Enterococcus faecalis (ATCC 29212): >64 µg/mL
Enterococcus sp.; [2]
  MIC Enterococcus faecalis (GC 2242): >64 µg/mL
Enterococcus sp.; [3]
  MIC Enterococcus faecium (GC 2243): 64 µg/mL (≈ 42.4 µM)
Enterococcus sp.; [4]
  MIC Enterococcus faecalis (GC 2691): >64 µg/mL
Enterococcus sp.; [5]
  MIC Enterococcus faecalis (GC 3059): >64 µg/mL
Enterococcus sp.; [6]
  MIC Enterococcus faecalis (GC 4552): >64 µg/mL
Enterococcus sp.; [7]
  MIC Enterococcus faecalis (GC 4553): 64 µg/mL (≈ 42.4 µM)
Enterococcus sp.; [8]
  MIC Enterococcus faecalis (GC 4554): >64 µg/mL
Enterococcus sp.; [9]
  MIC Enterococcus faecium (GC 4556): >64 µg/mL
Enterococcus sp.; [10]
  MIC Enterococcus faecium (GC 4557): 8 µg/mL (≈ 5.3 µM)
Enterococcus sp.; [11]
  MIC Enterococcus avium (GC 4558): 32 µg/mL (≈ 21.2 µM)
Enterococcus sp.; [12]
  MIC Enterococcus faecalis (GC 6189): >64 µg/mL
Staphylococcus sp.; inoculum 5×10^5 CFU/mL
  MIC Staphylococcus aureus (GC 1131): >64 µg/mL
Staphylococcus sp.
  MIC Staphylococcus aureus (ATCC 29213): >64 µg/mL
  MIC Staphylococcus aureus (GC 1131): >64 µg/mL
  MIC Staphylococcus aureus (GC 3051): >64 µg/mL
  MIC Staphylococcus aureus (GC 3053): >64 µg/mL
  MIC Staphylococcus aureus (GC 4541): 64 µg/mL (≈ 42.4 µM)
  MIC Staphylococcus aureus (GC 4542): >64 µg/mL
  MIC Staphylococcus aureus-SMITH (GC 4543): >64 µg/mL
  MIC Staphylococcus aureus (GC 4544): >64 µg/mL
  MIC Staphylococcus aureus (GC 4545): 64 µg/mL (≈ 42.4 µM)
  MIC Staphylococcus haemolyticus (GC 4546): 32 µg/mL (≈ 21.2 µM)
  MIC Coagulase Negative Staphylococcus (GC 4547): 32 µg/mL (≈ 21.2 µM)
  MIC Coagulase Negative Staphylococcus (GC 4548): 64 µg/mL (≈ 42.4 µM)
  MIC Coagulase Negative Staphylococcus (GC 4549): 64 µg/mL (≈ 42.4 µM)
  MIC Coagulase Negative Staphylococcus (GC 4551): >64 µg/mL
Staphylococcus sp.; strain GC 6257
  MIC Coagulase Negative Staphylococcus (GC 6257): 64 µg/mL (≈ 42.4 µM)
Streptococcus sp.
  MIC Streptococcus agalactiae (GC 4564): >64 µg/mL
  MIC Streptococcus pneumoniae (ATCC 6301): 64 µg/mL (≈ 42.4 µM)
  MIC Streptococcus pneumoniae (GC 1894): 64 µg/mL (≈ 42.4 µM)
  MIC Streptococcus pneumoniae (GC 4565): 64 µg/mL (≈ 42.4 µM)
  MIC Streptococcus pyogenes (GC 4563): 32 µg/mL (≈ 21.2 µM)
Streptococcus sp.; [13]
  MIC Streptococcus pneumoniae (ATCC 6301): 64 µg/mL (≈ 42.4 µM)
Streptococcus sp.; [14]
  MIC Streptococcus pneumoniae (GC 1894): 64 µg/mL (≈ 42.4 µM)
Streptococcus sp.; [15]
  MIC Streptococcus pyogenes (GC 4563): 32 µg/mL (≈ 21.2 µM)
Streptococcus sp.; [16]
  MIC Streptococcus agalactiae (GC 4564): >64 µg/mL
Streptococcus sp.; [17]
  MIC Streptococcus pneumoniae (GC 4565): 64 µg/mL (≈ 42.4 µM)
Escherichia coli
  MIC Escherichia coli (ATCC 25922): 64 µg/mL (≈ 42.4 µM)
  MIC Escherichia coli (GC 4559): 64 µg/mL (≈ 42.4 µM)
  MIC Escherichia coli (GC 4560): 8 µg/mL (≈ 5.3 µM)
